# Laboratory results reported in patent US8975241B2, “Composition for treating and preventing obesity including high water-soluble 2-hydroxypropyl-betacyclodextrin as effective component” (Song Ho Biomed Co., Ltd., priority 2009, dated 2015).
# Key:
# [1] = system: mouse model with obesity caused by a high fat diet; assay: Change in body weight by autonomically drinking in mouse model with obesity caused by high fat diet; assay type: in vivo; conditions: 15% (w/v) in drinking water
# Protocol: Male C57BL/6J mice (Five age of the week, KRIBB, Korea) were accommodated for 1 week, and then were induced with obesity by giving a high fat diet (60% fat kcal, Research Diets) for 15 days. The weights of the animals that were induced with obesity were equally divided into 3 animals as one group. And then, the solvent-control group drank sterilized distilled water, autonomically. Hydroxypropyl-β-cyclodextrin (HPBCD) was dissolved in sterilized distilled water to be 10, 15, and 20% (W/V) concentrations for drinking autonomically. A change in body weight was daily measured to all of animals during the test; the fixed amount of feeds was provided at the day of measuring body weight, and then an amount of intake per a group (g/day) was calculated by measuring a residual amount of feeds at the next day. A change in body weight was measured during the test using α-cyclodextrin (α-CD) instead of 2-hydroxypropyl-β-cyclodextrin (HPBCD) in the same method as the above <Example 1>.
# [2] = system: mouse model with obesity caused by a high fat diet; assay: Weights of body fat and liver after autonomically drinking in mouse model with obesity caused by high fat diet; assay type: in vivo
# Protocol: The animals induced with obesity in the above <Example 1> drank autonomically HPBCD with 10, 15, and 20% (W/V) concentrations for 3 days and then their autopsies were conducted. The mice were killed by using CO2 gas; their abdomens were cut; their genital fats, intra-abdominal fats, and livers were isolated; then their weights were measured using a chemical balance; average weight of three animals was calculated.
# high fat diet-mouse [3] = assay: Amount of feed intake by oral administration in high fat diet-mouse; assay type: in vivo
# Protocol: Male C57BL/6J mice (Five age of the week, KRIBB, Korea) were accommodated for 1 week. And then, the weights of the animals were equally divided into 5 animals as one group. While a high fat diet (60% fat kcal) was provided, sterilized distilled water and HPBCDs with 10, 20, and 40% (W/V) were orally administered at three times (Morning, Afternoon, Evening) a day for 5 days in 0.2 ml per 20 g body weight of a mouse at the same time. A change in body weight was measured to all of the animals during the test at one time per day; the fixed amount of feeds was provided at the day of measuring body weight, and then an average amount of intake per an animal (g/mouse/day) was calculated by measuring a residual amount of feeds at the next day.
# high fat diet-mouse [4] = assay: Change of liver weight and body fat by oral administration in high fat diet-mouse; assay type: in vivo; conditions: oral for 5 days
# Protocol: […] The mice were killed by using CO2 gas; their abdomens were cut; their subcutaneous fats, genital fats, intra-abdominal fats, and livers were isolated; then their weights were measured using a chemical balance; average weight of five animals was calculated.
# normal mouse (ICR) = assay: Oral maltose tolerance test; assay type: in vivo; conditions: for Rate of Suppression (%): vs control group
# Protocol: An oral maltose tolerance test system is to predict whether or not a sample has an effect on suppressing a sharp increase of blood sugar induced by intaking maltose after an oral-administration of the sample to a mouse.
# A normal mouse [ICR, 6W, Coretech Inc., Korea] was accommodated for 1 week, and then approximately 18˜20 g female with 7 age of the week mouse was used. 6 mice were assigned for one experimental group and starved for 16 hours to use. HPBCD was dissolved in sterilized distilled water to be 20% (W/V) concentration, and then oral-administered in 0.2 mL per 20 g body weight of a mouse. And then, the maltose dissolved in physiological saline was oral-administered to mice in a liquid amount of 10 ml/kg to inject 2 g/kg after 15, 30, 60, and 90 minutes, respectively. The levels of blood sugars were measured just before administering maltose (0 hour), and at 15, 60, and 120 minutes after administering maltose. Blood for measuring blood sugar was collected from orbital venous of the mouse using a capillary tube. The blood sugar in the collected blood was measured using a measuring instrument, […] ALPHA (Boehringer mannheim Co.). The same amount of sterilized distilled water was administered for the control group.
# [5] = system: mouse model with obesity caused by a high fat diet; assay: Change in body weight by autonomically drinking in mouse model with obesity caused by high fat diet; assay type: in vivo
# Solubility in water = conditions: at 25° C.
# [6] = 10% (w/v) in drinking water for 3 days
# [7] = 10, 15, 20% (W/V) autonomically drinking
# [8] = 15% (w/v) in drinking water for 3 days
# [9] = 20% (w/v) in drinking water for 3 days
# [10] = 20% (W/V) oral (−)15 min. before maltose 2 g/kg
# [11] = 20% (W/V) oral (−)30 min. before maltose 2 g/kg
# [12] = 20% (W/V) oral (−)60 min. before maltose 2 g/kg
# [13] = 20% (W/V) oral (−)90 min. before maltose 2 g/kg
substance,measurement,setting,value
2-hydroxypropyl-β-cyclodextrin [HPBCD],Change in body weight (%),[1]; 1 Day,96.1 ± 1.1 %
same,Change in body weight (%),[1]; 3 Day,90.9 ± 2.3 %
same,Total Amount of Fat,[2]; [6],1615.0 ± 212.3 mg
same,Weight of Genital Fat,[2]; [6],594.0 ± 95.0 mg
same,Weight of Intra-abdominal Fat,[2]; [6],158.8 ± 36.3 mg
same,Weight of Liver,[2]; [6],999.3 ± 150.2 mg
same,Weight of Subcutaneous Fat,[2]; [6],862.2 ± 86.7 mg
same,weight of liver vs control group,[2]; [7],decreased depending on the concentrations
same,Total Amount of Fat,[2]; [8],1437.0 ± 282.0 mg
same,Weight of Genital Fat,[2]; [8],524.8 ± 67.1 mg
same,Weight of Intra-abdominal Fat,[2]; [8],147.2 ± 29.2 mg
same,Weight of Liver,[2]; [8],820.5 ± 66.0 mg
same,Weight of Subcutaneous Fat,[2]; [8],765.1 ± 238.8 mg
same,Total Amount of Fat,[2]; [9],1035.6 ± 324.3 mg
same,Weight of Genital Fat,[2]; [9],448.4 ± 108.6 mg
same,Weight of Intra-abdominal Fat,[2]; [9],97.8 ± 44.9 mg
same,Weight of Liver,[2]; [9],808.7 ± 76.8 mg
same,Weight of Subcutaneous Fat,[2]; [9],489.4 ± 183.5 mg
same,Amount of Feed Intake (g/mouse/day),"high fat diet-mouse [3]; 10% (w/v) oral three times a day, 1 Day",3.0 ± 0.2 g/mouse/day
same,Amount of Feed Intake (g/mouse/day),"high fat diet-mouse [3]; 10% (w/v) oral three times a day, 2 Day",2.8 ± 0.3 g/mouse/day
same,Amount of Feed Intake (g/mouse/day),"high fat diet-mouse [3]; 10% (w/v) oral three times a day, 3 Day",2.9 ± 0.5 g/mouse/day
same,Amount of Feed Intake (g/mouse/day),"high fat diet-mouse [3]; 10% (w/v) oral three times a day, 4 Day",2.7 ± 0.5 g/mouse/day
same,Amount of Feed Intake (g/mouse/day),"high fat diet-mouse [3]; 10% (w/v) oral three times a day, 5 Day",2.7 ± 0.5 g/mouse/day
same,amount of dietary intake,"high fat diet-mouse [3]; 10, 20, 40% (W/V) oral",temporary effect on decreasing an amount of dietary intake
same,Amount of Feed Intake (g/mouse/day),"high fat diet-mouse [3]; 20% (w/v) oral three times a day, 1 Day",2.4 ± 0.4 g/mouse/day
same,Amount of Feed Intake (g/mouse/day),"high fat diet-mouse [3]; 20% (w/v) oral three times a day, 2 Day",2.1 ± 0.4 g/mouse/day
same,Amount of Feed Intake (g/mouse/day),"high fat diet-mouse [3]; 20% (w/v) oral three times a day, 3 Day",2.5 ± 0.4 g/mouse/day
same,Amount of Feed Intake (g/mouse/day),"high fat diet-mouse [3]; 20% (w/v) oral three times a day, 4 Day",2.6 ± 0.2 g/mouse/day
same,Amount of Feed Intake (g/mouse/day),"high fat diet-mouse [3]; 20% (w/v) oral three times a day, 5 Day",2.1 ± 0.4 g/mouse/day
same,Amount of Feed Intake (g/mouse/day),"high fat diet-mouse [3]; 40% (w/v) oral three times a day, 1 Day",1.8 ± 0.5 g/mouse/day
same,Amount of Feed Intake (g/mouse/day),"high fat diet-mouse [3]; 40% (w/v) oral three times a day, 2 Day",2.0 ± 0.5 g/mouse/day
same,Amount of Feed Intake (g/mouse/day),"high fat diet-mouse [3]; 40% (w/v) oral three times a day, 3 Day",2.7 ± 0.6 g/mouse/day
same,Amount of Feed Intake (g/mouse/day),"high fat diet-mouse [3]; 40% (w/v) oral three times a day, 4 Day",2.5 ± 0.3 g/mouse/day
same,Amount of Feed Intake (g/mouse/day),"high fat diet-mouse [3]; 40% (w/v) oral three times a day, 5 Day",2.6 ± 0.3 g/mouse/day
same,Total Amount of Fat,high fat diet-mouse [4]; 10% (w/v),1233.9 ± 244.8 mg
same,Weight of Genital Fat,high fat diet-mouse [4]; 10% (w/v),473.3 ± 99.6 mg
same,Weight of Intra-abdominal Fat,high fat diet-mouse [4]; 10% (w/v),113.0 ± 31.5 mg
same,Weight of Liver,high fat diet-mouse [4]; 10% (w/v),1011.1 ± 33.5 mg
same,Weight of Subcutaneous Fat,high fat diet-mouse [4]; 10% (w/v),647.6 ± 119.5 mg
same,Total Amount of Fat,high fat diet-mouse [4]; 15% (w/v),795.8 ± 90.1 mg
same,Weight of Genital Fat,high fat diet-mouse [4]; 15% (w/v),319.6 ± 46.5 mg
same,Weight of Liver,high fat diet-mouse [4]; 15% (w/v),960.2 ± 44.6 mg
same,Weight of Subcutaneous Fat,high fat diet-mouse [4]; 15% (w/v),411.3 ± 43.9 mg
same,Total Amount of Fat,high fat diet-mouse [4]; 20% (w/v),666.9 ± 75.3 mg
same,Weight of Genital Fat,high fat diet-mouse [4]; 20% (w/v),240.8 ± 45.5 mg
same,Weight of Intra-abdominal Fat,high fat diet-mouse [4]; 20% (w/v),43.9 ± 9.3 mg
same,Weight of Liver,high fat diet-mouse [4]; 20% (w/v),990.1 ± 35.1 mg
same,Weight of Subcutaneous Fat,high fat diet-mouse [4]; 20% (w/v),382.1 ± 38.3 mg
same,weight of liver vs control group,high fat diet-mouse [4],decreased depending on the concentrations
same,Increasing Amount of Blood Sugar (15 min.~0 hour),normal mouse (ICR); [10],189.7 mg/dL
same,"Level of Blood Sugar Before and After Administration of Maltose (mg/dl), 0 hour",normal mouse (ICR); [10],83.2 mg/dL
same,"Level of Blood Sugar Before and After Administration of Maltose (mg/dl), 15 min.",normal mouse (ICR); [10],272.8 mg/dL
same,Rate of Suppression (%),normal mouse (ICR); [10],38.6%
same,Increasing Amount of Blood Sugar (15 min.~0 hour),normal mouse (ICR); [11],164.8 mg/dL
same,"Level of Blood Sugar Before and After Administration of Maltose (mg/dl), 0 hour",normal mouse (ICR); [11],87.2 mg/dL
same,"Level of Blood Sugar Before and After Administration of Maltose (mg/dl), 15 min.",normal mouse (ICR); [11],252.0 mg/dL
same,Rate of Suppression (%),normal mouse (ICR); [11],46.7%
same,Increasing Amount of Blood Sugar (15 min.~0 hour),normal mouse (ICR); [12],171.3 mg/dL
same,"Level of Blood Sugar Before and After Administration of Maltose (mg/dl), 0 hour",normal mouse (ICR); [12],86.2 mg/dL
same,"Level of Blood Sugar Before and After Administration of Maltose (mg/dl), 15 min.",normal mouse (ICR); [12],257.5 mg/dL
same,Rate of Suppression (%),normal mouse (ICR); [12],44.6%
same,Increasing Amount of Blood Sugar (15 min.~0 hour),normal mouse (ICR); [13],186.2 mg/dL
same,"Level of Blood Sugar Before and After Administration of Maltose (mg/dl), 0 hour",normal mouse (ICR); [13],77.7 mg/dL
same,"Level of Blood Sugar Before and After Administration of Maltose (mg/dl), 15 min.",normal mouse (ICR); [13],264.2 mg/dL
same,Rate of Suppression (%),normal mouse (ICR); [13],39.6%
same,blood sugar caused by intaking maltose suppressed as compared with the control group,"normal mouse (ICR); oral, all pre-treatment times",38˜47%
same,Change in body weight (%),"[5]; 10% (w/v) in drinking water, 0 Day",100.0 ± 0.0%
same,Change in body weight (%),"[5]; 10% (w/v) in drinking water, 1 Day",98.1 ± 0.2%
same,Change in body weight (%),"[5]; 10% (w/v) in drinking water, 2 Day",97.6 ± 0.8 %
same,Change in body weight (%),"[5]; 10% (w/v) in drinking water, 3 Day",94.6 ± 0.7 %
same,body weight as compared with the distilled water-drinking control group,[5]; [7],decreased depending on the concentration
same,body weight as compared with the initial body weight,[5]; [7],significantly decreased
same,Change in body weight (%),"[5]; 15% (w/v) in drinking water, 0 Day",100.0 ± 0.0%
same,Change in body weight (%),"[5]; 15% (w/v) in drinking water, 2 Day",94.0 ± 1.3 %
same,Change in body weight (%),"[5]; 20% (w/v) in drinking water, 0 Day",100.0 ± 0.0%
same,Change in body weight (%),"[5]; 20% (w/v) in drinking water, 1 Day",100.0 ± 0.0%
same,Change in body weight (%),"[5]; 20% (w/v) in drinking water, 2 Day",89.1 ± 6.9 %
same,Change in body weight (%),"[5]; 20% (w/v) in drinking water, 3 Day",85.4 ± 8.1 %
same,Solubility,Solubility in water,> 600 mg/mL
